Bounds are passed on as bounds.

`O=C1NN=C(c2c[nH]c3ccccc23)C1=Cc1c[nH]c2ccccc12` [Example 230, 3-(Indol-3-yl)-4-[(indol-3-yl)methylene]-2-pyrazolin-5-one] displayed a melting point of 288 to 292 °C. Next, `COc1ccc(CCC2=NNC(=O)C2=Cc2c[nH]c3ccccc23)cc1` [Example 231, 4-[(Indol-3-yl)methylene]-3-(4-methoxyphenylethyl)-2-pyrazolin-5-one]: 266 to 268 °C; `O=C1NN=C(COc2ccc(-c3ccccc3)cc2)C1=Cc1c[nH]c2ccccc12` [Example 232, 4-[(Indol-3-yl)methylene]-3-(4-phenylphenyloxymethyl)-2-pyrazolin-5-one]: 295 to 296 °C; `CC(CC1=NNC(=O)C1=Cc1c[nH]c2ccccc12)c1ccccc1` (stereo not shown) [Example 233, 4-[(Indol-3-yl)methylene]-3-(2-phenylpropyl)-2-pyrazolin-5-one]: 253 to 255 °C. `O=C1NN=C(CCCc2ccccc2)C1=Cc1c[nH]c2ccccc12` [Example 234, 4-[(Indol-3-yl)methylene]-3-(3-phenylpropyl)-2-pyrazolin-5-one] had a melting point of 218 to 220 °C. Regarding `O=C1NN=C(CCc2ccc(O)cc2)C1=Cc1c[nH]c2ccccc12` [Example 235, 3-(4-Hydroxyphenylethyl)-4-[(indol-3-yl)methylene]-2-pyrazolin-5-one], the melting point fell in the range of 271 to 275 °C. Molecule `Cc1ccc(CCC2=NNC(=O)C2=Cc2c[nH]c3ccccc23)cc1` [Example 236, 4-[(Indol-3-yl)methylene]-3-(4-methylphenylethyl)-2-pyrazolin-5-one] showed a melting point of 244 to 245 °C.

Turning to `CCOC1=NNC(=O)C1=Cc1c[nH]c2ccccc12` [Example 237, 3-Ethoxy-4-[(indol-3-yl)methylene]-2-pyrazolin-5-one], the melting point lay in the range of 248 to 250 °C. Take `CC(C)OC1=NNC(=O)C1=Cc1cn(CCCCO)c2ccccc12` [Example 238, 4-{[1-(4-Hydroxybutyl)indol-3-yl]methylene}-3-isopropoxy-2-pyrazolin-5-one]: the melting point lay in the range of 210 to 212 °C. Then `O=C1NN=C(CCc2ccccc2)C1=Cc1cn(CCCCO)c2ccccc12` [Example 239, 4-{[1-(4-Hydroxybutyl)indol-3-yl]methylene}-3-phenylethyl-2-pyrazolin-5-one], with 205 to 207 °C. Consider `O=C1NN=C(CCc2ccc([N+](=O)[O-])cc2)C1=Cc1c[nH]c2ccccc12` [Example 240, 4-[(Indol-3-yl)methylene]-3-(4-nitrophenylethyl)-2-pyrazolin-5-one], for which the melting point fell in the range of 295 to 297 °C.

Molecule `CCCOC1=NNC(=O)C1=Cc1c[nH]c2ccccc12` [Example 241, 4-[(Indol-3-yl)methylene]-3-propoxy-2-pyrazolin-5-one] yielded a melting point of 246 to 247 °C. `O=C1NN=C(Nc2ccc(F)cc2)C1=Cc1c[nH]c2ccccc12` [Example 242, 3-(4-Fluorophenylamino)4-[(indol-3-yl)methylene]--2-pyrazolin-5-one] returned a melting point of 251 to 252 °C. For the molecule `Nc1ccc(CCC2=NNC(=O)C2=Cc2c[nH]c3ccccc23)cc1` [Example 243, 3-(4-Aminophenylethyl)-4-[(indol-3-yl)methylene]-2-pyrazolin-5-one], the melting point lay within 244 to 246 °C. `Cc1[nH]c2ccccc2c1C=C1C(=O)NN=C1OC(C)C` [Example 244, 3-Isopropoxy-4-[(2-methylindol-3-yl)methylene]-2-pyrazolin-5-one] registered a melting point of 262 to 264 °C.

The molecule `Cc1cccc2c(C=C3C(=O)NN=C3OC(C)C)c[nH]c12` [Example 245, 3-Isopropoxy-4-[(7-methylindol-3-yl)methylene]-2-pyrazolin-5-one] returned a melting point of 254 to 256 °C. In turn, `Cc1cccc2c(C=C3C(=O)NN=C3CCc3ccccc3)c[nH]c12` [Example 246, 4-[(7-Methylindol-3-yl)methylene]-3-phenylethyl-2-pyrazolin-5-one] registered a melting point of 302 to 304 °C. In turn, `O=C1NN=C(C2CCCC2)C1=Cc1c[nH]c2ccccc12` [Example 247, 3-Cyclopentyl-4-[(indol-3-yl)methylene]-2-pyrazolin-5-one] displayed a melting point of 277 to 279 °C. `CC(C)OC1=NNC(=O)C1=Cc1cn(C)c2ccccc12` [Example 248, 3-Isopropoxy-4-[(1-methylindol-3-yl)methylene]-2-pyrazolin-5-one] returned a melting point of 239 to 240 °C. `COC(=O)c1ccc(CCC2=NNC(=O)C2=Cc2c[nH]c3ccccc23)cc1` [Example 249, 4-[(Indol-3-yl)methylene]-3-(4-methoxycarbonylphenylethyl)-2-pyrazolin-5-one]: the melting point is 259 to 260 °C. Then `CC(C)OC1=NNC(=O)C1=Cc1cn(C(C)C)c2ccccc12` [Example 250, 3-Isopropoxy-4-[(1-isopropylindol-3-yl)methylene]-2-pyrazolin-5-one], with 161 to 163 °C; and `Cn1cc(C=C2C(=O)NN=C2CCc2ccc(O)cc2)c2ccccc21` [Example 251, 3-(4-Hydroxyphenylethyl)-4-[(1-methylindol-3-yl)methylene]-2-pyrazolin-5-one], with 255 to 257 °C; and `CC(C)C1=NNC(=O)C1=Cc1c[nH]c2ccccc12` [Example 252, 3-Isopropyl-4-[(indol-3-yl)methylene]-2-pyrazolin-5-one], with 264 to 266 °C. Turning to `O=C(CC1=NNC(=O)C1=Cc1c[nH]c2ccccc12)Nc1ccc(Cl)cc1` [Example 253, 3-(4-Chlorophenylaminocarbonylmethyl)-4-[(indol-3-yl)methylene]-2-pyrazolin-5-one], the melting point was in the range of 305 to 307 °C. Consider `CCOC(=O)CC1=NNC(=O)C1=Cc1c[nH]c2ccccc12` [Example 254, 3-Ethoxycarbonylmethyl-4-[(indol-3-yl)methylene]-2-pyrazolin-5-one], for which the melting point lay in the range of 235 to 237 °C. For the molecule `COc1ccc(NC(=O)CC2=NNC(=O)C2=Cc2c[nH]c3ccccc23)cc1` [Example 255, 4-[(Indol-3-yl)methylene]-3-(4-methoxyphenylaminocarbonylmethyl)-2-pyrazolin-5-one], the melting point was > 300 °C. Then `O=C1NN=C(C2CC2)C1=Cc1c[nH]c2ccccc12` [Example 256, 3-Cyclopropyl-4-[(indol-3-yl)methylene]-2-pyrazolin-5-one], with 300 to 305 °C; and `NC(=O)CCC1=NNC(=O)C1=Cc1c[nH]c2ccccc12` [Example 258, 3-(2-Aminocarbonylethyl)-4-[(indol-3-yl)methylene]-2-pyrazolin-5-one], with 280 to 281 °C. In the case of `O=C1NN=C(C2CCC2)C1=Cc1c[nH]c2ccccc12` [Example 259, 3-Cyclobutyl-4-[(indol-3-yl)methylene]-2-pyrazolin-5-one], the melting point is > 300 °C. Then `CN(C)C(=O)CCC1=NNC(=O)C1=Cc1c[nH]c2ccccc12` [Example 260, 3-(2-Dimethylaminocarbonylethyl)-4-[(indol-3-yl)methylene]-2-pyrazolin-5-one], with 258 to 260 °C; and `O=C1NN=C(C2CC2)C1=Cc1cn(CCCCO)c2ccccc12` [Example 261, 3-Cyclopropyl-4-{[1-(4-hydroxybutyl)indol-3-yl]methylene}-2-pyrazolin-5-one], with 215 to 216 °C. For the molecule `O=C1NN=C(c2ccncc2)C1=Cc1c[nH]c2ccccc12` [Example 262, 4-[(Indol-3-yl)methylene]-3-(4-pyridyl)-2-pyrazolin-5-one], the melting point is > 300 °C. `O=C1NN=C(C2CCCC2)C1=Cc1c[nH]c2ccccc12` [Example 263, 3-Cyclopentyl-4-[(indol-3-yl)methylene]-2-pyrazolin-5-one] came in with a melting point of 300 to 304 °C.

`CC1(C)C(C2=NNC(=O)C2=Cc2c[nH]c3ccccc23)C1(C)C` [Example 264, 4-[(Indol-3-yl)methylene]-3-(2,2,3,3-tetramethylcyclopropyl)-2-pyrazolin-5-one]: the melting point lay in the range of 296 to 298 °C. On to `CC1CC1C1=NNC(=O)C1=Cc1c[nH]c2ccccc12` (stereo not shown) [Example 265, 4-[(Indol-3-yl)methylene]-3-(2-methylcyclopropyl)-2-pyrazolin-5-one], for which the melting point fell in the range of 294 to 296 °C.

The molecule `O=C1NN=C(C2CCCCC2)C1=Cc1cn(CCCCO)c2ccccc12` [Example 266, 3-Cyclohexyl-4-{[1-(4-hydroxybutyl)indol-3-yl]methylene}-2-pyrazolin-5-one] showed a melting point of 226 to 227 °C.

Regarding `O=C1NN=C(c2ccncc2)C1=Cc1cn(CCCCO)c2ccccc12` [Example 267, 4-{[1-(4-Hydroxybutyl)indol-3-yl]methylene}-3-(4-pyridyl)-2-pyrazolin-5-one], the melting point is 224 to 225 °C. For the molecule `O=C1NN=C(c2nc3ccccc3s2)C1=Cc1c[nH]c2ccccc12` [Example 268, 3-(Benzothiazol-2-yl)-4-[(indol-3-yl)methylene]-2-pyrazolin-5-one], the melting point is > 300 °C.

Molecule `O=C1NN=C(c2ccccn2)C1=Cc1c[nH]c2ccccc12` [Example 269, 4-[(Indol-3-yl)methylene]-3-(2-pyridyl)-2-pyrazolin-5-one] yielded a melting point of 278 to 280 °C. With `CN(C)C1=NNC(=O)C1=Cc1c[nH]c2ccccc12` [Example 270, 3-Dimethylamino-4-[(indol-3-yl)methylene]-2-pyrazolin-5-one], the melting point is 258 to 260 °C. The molecule `O=C1NN=C(c2ccc[nH]2)C1=Cc1c[nH]c2ccccc12` [Example 271, 4-[(Indol-3-yl)methylene]-3-(pyrrol-2-yl)-2-pyrazolin-5-one] displayed a melting point of 300 to 302 °C. Consider `COc1ccc2nc(C3=NNC(=O)C3=Cc3c[nH]c4ccccc34)sc2c1` [Example 272, 4-[(Indol-3-yl)methylene]-3-(6-methoxybenzothiazol-2-yl)-2-pyrazolin-5-one], for which the melting point was > 300 °C. Then `Cn1cc(C=C2C(=O)NN=C2C2CC2)c2ccccc21` [Example 273, 3-Cyclopropyl-4-[(1-methylindol-3-yl)methylene]-2-pyrazolin-5-one], with 245 to 247 °C.

Usually melting point stands for the temperature of the solid-liquid transition.

The values are drawn from patent US7060822B1, “2-pyrazolin-5-ones” (Abbott GmbH & Co. KG, priority 1999, dated 2006).
